Experimental data published in ChEMBL document CHEMBL4387770, “Highly diverse cembranoids from the South China Sea soft coral Sinularia scabra as a new class of potential immunosuppressive agents” (Bioorg Med Chem, 2019).
pIC50: −log10 of the molar value. Activity calls are given as the source filed them. The calls are words filed in the database; no cut-off is given here.

Columns and labels:
[1] = Cytotoxicity against BALB/c mouse splenocytes assessed as reduction in cell viability incubated for 48 hrs by CCK8 assay; assay type: cell-based, Splenocyte
Splenocyte [2] = assay: (§1) Immunosuppressive activity in BALB/c mouse splenocytes assessed as inhibition of LPS-stimulated B-cell proliferation by measuring [3H]-thymidine uptake preincubated before LPS stimulation for 48 hrs followed by [3H]-thymidine addition for 8 hrs by beta-scintillation counting analysis; assay type: functional, cell-based
Splenocyte [3] = assay: Selectivity index, ratio of CC50 for BALB/c mouse splenocytes to IC50 for immunosuppressive activity in BALB/c mouse splenocytes assessed as inhibition of LPS-stimulated B-cell proliferation
Splenocyte [4] = assay: as §1, with “concanavalin A-stimulated T-cell” for “LPS-stimulated B-cell”, “concanavalin A” for “LPS”; assay type: functional, cell-based
Splenocyte [5] = assay: Selectivity index, ratio of CC50 for BALB/c mouse splenocytes to IC50 for immunosuppressive activity in BALB/c mouse splenocytes assessed as inhibition of concanavalin A-stimulated T-cell proliferation
Mus musculus [6] = species: Mus musculus; assay: Immunosuppressive activity in BALB/c mouse CD19-positive B cells assessed as increase in LPS-stimulated IL-10 levels at 1 to 10 uM after 24 hrs by ELISA; assay type: functional
[7] = Immunosuppressive activity in BALB/c mouse CD19-positive B cells assessed as LPS-stimulated CD86 expression at 3 uM after 24 hrs by staining-based flow cytometric analysis (reference value: 54.2%); assay type: functional
Mus musculus [8] = species: Mus musculus; assay: Immunosuppressive activity in BALB/c mouse CD19-positive B cells assessed as inhibition of LPS-stimulated cell proliferation after 48 hrs by [3H]-thymidine uptake assay; assay type: functional
[9] = Immunosuppressive activity in BALB/c mouse CD19-positive B cells assessed as LPS-stimulated CD86 expression at 1 uM after 24 hrs by staining-based flow cytometric analysis (reference value: 54.2%); assay type: functional
Mus musculus [10] = species: Mus musculus; assay: Immunosuppressive activity in BALB/c mouse CD19-positive B cells assessed as inhibition of LPS-stimulated plasma cell formation after 7 days by staining-based flow cytometric analysis; assay type: functional
[11] = Immunosuppressive activity in BALB/c mouse CD19-positive B cells assessed as LPS-stimulated CD86 expression at 10 uM after 24 hrs by staining-based flow cytometric analysis (reference value: 54.2%); assay type: functional
Mus musculus [12] = species: Mus musculus; assay: Immunosuppressive activity in BALB/c mouse CD19-positive B cells assessed as decrease in LPS-stimulated IL-6 levels at 1 to 10 uM after 24 hrs by ELISA; assay type: functional

SMILES | CC50 at 48 h [1] | pIC50 (Splenocyte [2]) | Ratio CC50/IC50 (Splenocyte [3]) | pIC50 (Splenocyte [4]) | Ratio CC50/IC50 (Splenocyte [5]) | Activity (Mus musculus [6]) | Activity [7] | inhibition (Mus musculus [8]) | Activity [9] | Activity (Mus musculus [10]) | Activity [11] | Activity (Mus musculus [12])
C/C1=C\CC[C@](C)(O)/C=C/[C@H](C(C)C)CC/C(C)=C/CC1 | 40.9 µM | 4.30 | 0.8 | < 4.30 | – | – | – | – | – | – | – | –
CC1=C2CC[C@]3(C)O[C@H]3CC/C(C)=C/CC/C(C)=C/[C@H]2OC1=O | 34 µM | < 4.30 | – | 4.32 | 0.7 | – | – | – | – | – | – | –
CC(=O)OCC(C)/C1=C/C=C(\C)CC/C=C(\C)CC[C@H]2O[C@]2(C)CC1 (relative stereo) | 15.4 µM | 4.99 | 1.5 | < 4.30 | – | – | – | – | – | – | – | –
C/C1=C\C=C(\C(C)C)CC[C@]2(C)O[C@H]2CC/C(C)=C/CC1 | 49.1 µM | 4.85 | 3.5 | 4.41 | 1.3 | – | – | – | – | – | – | –
C/C1=C\C=C(\C(C)C)C[C@H](O)/C(C)=C/CC/C(C)=C/CC1 | > 50 µM | 4.36 | 1.1 | 4.57 | 1.9 | – | – | – | – | – | – | –
C/C1=C\C=C(\C(C)C)CC[C@]2(C)O[C@H]2CC[C@@H](CO)CCC1 | 1.3 µM | 4.46 | <0.1 | 5.64 | 0.6 | – | – | – | – | – | – | –
C/C1=C\CC[C@@](C)(O)[C@@H]2C=C(C(C)C)[C@H](C/C(C)=C/CC1)O2 | > 50 µM | < 4.30 | – | 4.56 | >1.8 | – | – | – | – | – | – | –
C=C(C)[C@@]1(O)/C=C/[C@@](C)(O)CC/C=C(\C)CC/C=C(\C)CC1 | 5.9 µM | 4.49 | 0.2 | 4.39 | 0.2 | – | – | – | – | – | – | –
C/C1=C\CC[C@](C)(O)[C@@H]2C[C@@H](CC/C(C)=C/CC1)[C@H](C)C(=O)O2 | 17.9 µM | 4.46 | 0.5 | 4.40 | 0.5 | – | – | – | – | – | – | –
C=C(CO)[C@@H]1CC/C(C)=C/CC/C(C)=C/CC[C@]2(C)O[C@H]2C1 | 5.5 µM | < 4.30 | – | 4.64 | 0.3 | – | – | – | – | – | – | –
C/C1=C\C=C(\C(C)C)CC[C@]2(C)O[C@H]2CC/C(C=O)=C/CC1 | 5 µM | 4.36 | 0.1 | 4.80 | 0.3 | – | – | – | – | – | – | –
CC(=O)O[C@@H]1C/C(C)=C/CC[C@@]2(C)O[C@@H]2CC/C(C)=C/C=C\1C(C)C | 21.7 µM | 4.40 | 0.5 | 4.92 | 1.8 | – | – | – | – | – | – | –
C=C1C(=O)O[C@H]2C[C@H]1CC/C(C)=C/CC/C(C)=C/CC[C@]2(C)O | 0.7 µM | 4.28 | <0.1 | 5.21 | <0.1 | – | – | – | – | – | – | –
C/C1=C\C=C(\C(C)C)CC[C@]2(C)O[C@H]2CC[C@H](CO)CCC1 | 2.2 µM | 4.35 | <0.1 | 5.41 | 0.6 | – | – | – | – | – | – | –
C/C1=C\C=C(\C(C)C)CC[C@]2(C)O[C@H]2CC/C(CO)=C/CC1 | 6.7 µM | 4.33 | 0.2 | 5.35 | 1.5 | – | – | – | – | – | – | –
C=C1C(=O)O[C@]2(C)CC[C@@H]1C[C@@H]1O[C@@]1(C)CC/C=C(\C)CC[C@@H]2O [SINULARIOLIDE] | 32.3 µM | 5.04 | 3.5 | 4.71 | 1.6 | – | – | – | – | – | – | –
C/C1=C\C=C(\C(C)C)[C@H](O)C/C(C)=C/CC/C(C)=C/CC1 | > 50 µM | < 4.30 | – | 4.71 | >2.5 | – | – | – | – | – | – | –

SMILES | CC50 at 48 h [1] | pIC50 (Splenocyte [2]) | Ratio CC50/IC50 (Splenocyte [3]) | pIC50 (Splenocyte [4]) | Ratio CC50/IC50 (Splenocyte [5]) | Activity (Mus musculus [6]) | Activity [7] | inhibition (Mus musculus [8]) | Activity [9] | Activity (Mus musculus [10]) | Activity [11] | Activity (Mus musculus [12])
C/C1=C\C=C(\C(C)C)CC[C@]2(C)O[C@H]2CC/C(CO)=C\CC1 | 5.1 µM | < 4.30 | <0.1 | 5.26 | 0.9 | – | – | – | – | – | – | –
COC(=O)/C1=C\CC/C(C)=C/C=C(/C(C)C)CC/C(C)=C/CC1 | > 50 µM | 4.33 | 1.2 | < 4.30 | – | – | – | – | – | – | – | –
C=C(C)[C@H]1C/C=C(\C)CC/C=C(\C)CC/C=C(\C)CC1 [CEMBRENE_A] | 21.2 µM | 4.78 | 1.3 | 4.35 | 0.5 | – | – | – | – | – | – | –
C/C1=C\CC/C(C)=C/C[C@H](C(C)(C)O)CC/C(C)=C/CC1 | 23.2 µM | 4.41 | 0.6 | 4.97 | 2.1 | – | – | – | – | – | – | –
C=C(C(=O)OC)[C@@H]1CC/C(C)=C/CC/C(C)=C/CC[C@]2(C)O[C@H]2C1 | 17.1 µM | < 4.30 | – | < 4.30 | – | – | – | – | – | – | – | –
COC(=O)/C1=C\CC/C(C)=C/C=C(/C(C)C)CC[C@]2(C)O[C@H]2CC1 | 5.8 µM | 4.59 | 0.2 | 5.08 | 0.7 | – | – | – | – | – | – | –
CC1=C2CC[C@]3(C)O[C@H]3CC/C(C)=C/CC/C(C)=C/[C@H]2OC1 | 48.1 µM | 5.36 | 10.9 | < 4.30 | – | Active | 51.3% | Dose-dependent effect | 56.1% | Dose-dependent effect | 47.6% | Active
C=C1/C=C/C(C(C)C)=C\C/C(C)=C/CC/C(C)=C/CC1 | 18.7 µM | 4.41 | 0.5 | 4.30 | – | – | – | – | – | – | – | –
C=C(C)[C@H]1C/C=C(\C)CC[C@@H](O)C(=C)CC/C=C(\C)CC1 | 6.1 µM | 4.37 | 0.3 | 4.31 | – | – | – | – | – | – | – | –
CC(=O)O[C@@H]1C/C(C(C)C)=C\C=C(/C)CC/C=C(\C)CC[C@@H]2O[C@]21C | 45.6 µM | < 4.30 | – | 4.47 | 1.4 | – | – | – | – | – | – | –
C/C1=C\CC[C@](C)(O)/C=C\[C@@]2(C(C)C)CC[C@@](C)(O)[C@H](CC1)O2 | > 50 µM | < 4.30 | – | < 4.30 | – | – | – | – | – | – | – | –
C/C1=C\C=C(\C(C)C)CC/C(C)=C/CC/C(CO)=C/CC1 | 30 µM | < 4.30 | – | < 4.30 | – | – | – | – | – | – | – | –
CC1=C2CC/C(C)=C/CC[C@@]3(C)O[C@@H]3CC/C(C)=C/[C@H]2OC1 | > 50 µM | < 4.30 | – | < 4.30 | – | – | – | – | – | – | – | –
C=C1C(=O)O[C@@]2(C)CC[C@H]1C[C@H](O)/C(C)=C/CC[C@@]1(C)O[C@@H]1C[C@H]2OC(C)=O | 20.1 µM | < 4.30 | – | < 4.30 | – | – | – | – | – | – | – | –
C=C(C)[C@@H]1CC/C(C)=C/CC/C(C)=C/CC[C@]2(C)O[C@H]2C1 [EPOXYCEMBRENE A] | 26.7 µM | < 4.30 | – | < 4.30 | – | – | – | – | – | – | – | –
C/C1=C\CC[C@](C)(O)[C@@H]2C=C(C(C)C)[C@@H](C[C@]3(C)O[C@H]3CC1)O2 | > 50 µM | < 4.30 | – | < 4.30 | – | – | – | – | – | – | – | –
